Where only a bound is given, the exact number is not on record here.

Holding throughout (type): cell-based
One assay relates to wildtype Wnt pathway. Description: HEK293 Super TopFlash cellular reporter assay, Wnt-3a stimulated (wildtype Wnt pathway). The note with it: Homo sapiens; HEK293 TOP reporter cells, EC50 concentration of recombinant Wnt-3a, 16 hours incubation; read-out: HEK TOP OncoFlash IC50. As for the experimental part:
(§1) In order to determine the inhibitory activity of compounds for the WT Wnt signaling pathway, the Super TopFlash vector respectively FOP vector were cotransfected with pcDNA3 into HEK293 and stable transfected HEK293 cells were isolated by antibiotic selection. […] The recombinant human Wnt-3a was thereby used between 2500 and 5 ng/ml in two-fold dilution steps. […] Measurement of luciferase expression was done as described for the constitutive active Wnt assay.
In order to discover and characterize small molecules which inhibit the wildtype Wnt pathway, a cellular reporter assay was employed. The corresponding assay cell was generated by transfection of the mammalian cell line HEK293 (ATCC, #CRL-1573) with the Super TopFlash vector (Morin, Science 275, 1997, 1787-1790; Molenaar et al., Cell 86 (3), 1996, 391-399). The HEK293 cell line is cultivated at 37° C. and 5% CO2 in DMEM (Life Technologies, #41965-039), supplemented with 2 mM glutamine, 20 mM HEPES, 1.4 mM pyruvate, 0.15% Na-bicarbonate and 10% foetal bovine serum (GIBCO, #10270). Stable transfectants were generated by selection with 300 μg/ml Hygromycin.
(§2) In preparation of the assay, the two cell lines were plated 24 hours before beginning the test at 10000 cells per well in a 384 micro titre plate (MTP) in […] growth medium. […] The recombinant human Wnt-3a was thereby applied between 2500 and 5 ng/ml in two-fold dilution steps. Selective inhibitory activity for small molecules on the wildtype Wnt pathway was determined after parallel incubation of both (TOP and FOP) HEK293 reporter cell lines with a compound dilution series from 50 μM to 15 nM in steps of 3.16-fold dilutions in CAFTY buffer (130 mM NaCl, 5 mM KCl, 20 mM HEPES, 1 mM MgCl2, 5 mM NaHCO3, pH 7.4) containing 2 mM Ca^2+ and 0.01% BSA.
(§3) The compounds were thereby serially prediluted in 100% DMSO and thereafter 50 fold into the CAFTY compound dilution buffer (described above).

Assay [1] has as its system constitutive active colorectal cancer cell (CRC) Wnt pathway. Description: HCT116 Super TopFlash cellular reporter assay (constitutive active Wnt pathway). The note with it: Homo sapiens, HCT-116, 36 h, HCT116 TOP reporter cells, luciferase expression, 36 hours incubation, 50 μM to 15 nM. Put shortly: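 Luciferase luminescence served as the Wnt read-out after 36 h of compound treatment at 37 °C. Compound came from a pre-dilution series (50 μM down to 15 nM, 3.16-fold steps) in CAFTY buffer. Cells were stable HCT116 TOP reporter cells, with matched FOP-vector control cells tested in parallel, seeded a day earlier.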
A general note: Reporter assays use an easily measured gene product as a stand-in for the process of interest.

For assay [2], the system named is HEK293 FOP control reporter cell line. Description: HEK293 FOP control vector reporter assay. The conditions noted are these: Homo sapiens; HEK293 FOP control reporter cells, EC50 concentration of recombinant Wnt-3a, 16 hours incubation; read-out: HEK FOP IC50. On the procedure: as §1
In a parallel approach, HEK293 cells were cotransfected with the FOP control vector and pcDNA3. The FOP vector is identical to the TOP construct, but it contains instead of functional TCF elements a randomized, non-functional sequence. For this transfection a stable transfected cell line was generated as well, based on selection with Geneticin (1 mg/ml).
as §2, §3

Assay [3] relates to HCT116 FOP control reporter cell line. Description: HCT116 FOP control vector reporter assay (non-functional TCF elements). The note with it: Homo sapiens, HCT-116, 36 h, HCT116 FOP control reporter cells, luciferase expression, 36 hours incubation, 50 μM to 15 nM; read-out: HCT116 FOPFlash IC50. In a few lines:
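Stable HCT116 line carrying the non-functional FOP luciferase construct, 10000 cells/well plated 24 hrs before. Compounds 50 μM to 15 nM (3.16-fold steps) in CAFTY buffer pH 7.4 with 2 mM Ca2+, 36 hours at 37° C; luciferase luminescence read.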

For the molecule `COc1ccc(C(=O)Nc2ccc(-c3ccccc3)cc2)cc1NC(=O)CN1CCOCC1` [Example 1, N-(biphenyl-4-yl)-4-methoxy-3-[(morpholin-4-ylacetyl)amino]benzamide], the IC50 with wildtype Wnt pathway is 3300 nM; in assay [1], 157 nM; in assay [2], ≥ 50000 nM; in assay [3], ≥ 50000 nM.

For the molecule `COc1ccc(C(=O)Nc2ccc(-c3ccccc3)cc2)cc1NC(=O)Cn1cccn1` [Example 2, N-(biphenyl-4-yl)-4-methoxy-3-[(1H-pyrazol-1-ylacetyl)amino]benzamide], the IC50 was 1480 nM in the assay with wildtype Wnt pathway, 3200 nM in assay [1], 50000 nM in assay [2] and ≥ 50000 nM in assay [3].

On to `CC(C)(C(=O)Nc1cc(C(=O)Nc2ccc(-c3ccccc3)cc2)ccc1C(F)(F)F)n1cccn1` [Example 4, N-(biphenyl-4-yl)-3-{[2-methyl-2-(1H-pyrazol-1-yl)propanoyl]amino}-4-(trifluoromethyl)benzamide], for which the IC50 in the assay with wildtype Wnt pathway is 400 nM; in assay [1] it was 112 nM; in assay [2], 8600 nM; in assay [3], ≥ 50000 nM.

Regarding `COc1ccc(C(=O)Nc2ccc(-c3ccccc3)cc2)cc1NC(=O)CN1C[C@@H]2C[C@H]1CO2` [Example 7, N-(biphenyl-4-yl)-4-methoxy-3-{[(1S,4S)-2-oxa-5-azabicyclo[2.2.1]hept-5-ylacetyl]amino}benzamide], the concentration for half-maximal inhibition (IC50) in the assay on wildtype Wnt pathway is 820 nM; in assay [1], 963 nM; in assay [2], 10000 nM; in assay [3], ≥ 50000 nM.

Consider `COc1ccc(C(=O)Nc2ccc(-c3ccccc3)cc2)cc1NC(=O)CN1CC2CCC(C1)O2` [Example 8, N-(biphenyl-4-yl)-4-methoxy-3-[(8-oxa-3-azabicyclo[3.2.1]oct-3-ylacetyl)amino]benzamide], for which the IC50 in the assay on wildtype Wnt pathway was 270 nM; in assay [1], 70 nM; in assay [2], ≥ 50000 nM; in assay [3], ≥ 50000 nM.

With `O=C(CN1CCOCC1)Nc1cc(C(=O)Nc2ccc(-c3ccccc3)cc2)ccc1C(F)(F)F` [Example 9, N-(biphenyl-4-yl)-3-[(morpholin-4-ylacetyl)amino]-4-(trifluoromethyl)benzamide], the IC50 is 120 nM in the assay with wildtype Wnt pathway, 40 nM in assay [1], ≥ 50000 nM in assay [2] and ≥ 50000 nM in assay [3].

In the case of `COC(=O)c1ccc(C(=O)Nc2ccc(-c3ccccc3)cc2)cc1NC(=O)CN1CCOCC1` [Example 12, methyl 4-(biphenyl-4-ylcarbamoyl)-2-[(morpholin-4-ylacetyl)amino]benzoate], the 50% inhibitory concentration (IC50) was 440 nM with wildtype Wnt pathway, 40 nM in assay [1], ≥ 50000 nM in assay [2] and ≥ 50000 nM in assay [3].

For the molecule `O=C(CN1CCOCC1)Nc1cc(C(=O)Nc2ccc(-c3ccccc3)cc2)ccc1Br` [Example 13, N-(biphenyl-4-yl)-4-bromo-3-[(morpholin-4-ylacetyl)amino]benzamide], the IC50 was 500 nM in the assay on wildtype Wnt pathway, 91 nM in assay [1], 12000 nM in assay [2] and ≥ 50000 nM in assay [3].

As for `CC(C(=O)Nc1cc(C(=O)Nc2ccc(-c3ccccc3)cc2)ccc1C(F)(F)F)N1CCOCC1` (stereo not drawn) [Example 14, N-(biphenyl-4-yl)-3-{[2-(morpholin-4-yl)propanoyl]amino}-4-(trifluoromethyl)benzamide], the IC50 was 240 nM in the assay with wildtype Wnt pathway, 27 nM in assay [1], 7000 nM in assay [2] and ≥ 50000 nM in assay [3].

For `C[C@@H](C(=O)Nc1cc(C(=O)Nc2ccc(-c3ccccc3)cc2)ccc1C(F)(F)F)N1CCOCC1` [Example 15, N-(biphenyl-4-yl)-3-{[(2S)-2-(morpholin-4-yl)propanoyl]amino}-4-(trifluoromethyl)benzamide], the IC50 worked out at 100 nM in the assay with wildtype Wnt pathway, 29.6 nM in assay [1], 4000 nM in assay [2] and 39500 nM in assay [3].

Take `C[C@H](C(=O)Nc1cc(C(=O)Nc2ccc(-c3ccccc3)cc2)ccc1C(F)(F)F)N1CCOCC1` [Example 16, N-(biphenyl-4-yl)-3-{[(2R)-2-(morpholin-4-yl)propanoyl]amino}-4-(trifluoromethyl)benzamide]: the half-inhibitory concentration (IC50) in the assay on wildtype Wnt pathway was 26 nM; in assay [1], 17.9 nM; in assay [2], 7900 nM; in assay [3], ≥ 50000 nM.

On to `CC(C)(C(=O)Nc1cc(C(=O)Nc2ccc(-c3ccccc3)cc2)ccc1C(F)(F)F)N1CCOCC1` [Example 17, N-(biphenyl-4-yl)-3-{[2-methyl-2-(morpholin-4-yl)propanoyl]amino}-4-(trifluoromethyl)benzamide], for which the IC50 was 290 nM with wildtype Wnt pathway, 240 nM in assay [1], 33000 nM in assay [2] and ≥ 50000 nM in assay [3].

For the molecule `N#Cc1ccc(C(=O)Nc2ccc(-c3ccccc3)cc2)cc1NC(=O)CN1CCOCC1` [Example 18, N-(biphenyl-4-yl)-4-cyano-3-[(morpholin-4-ylacetyl)amino]benzamide], the IC50 is 690 nM with wildtype Wnt pathway, 58.7 nM in assay [1], 19000 nM in assay [2] and ≥ 50000 nM in assay [3].

`O=C(CN1CCOCC1)Nc1cc(C(=O)Nc2ccc(-c3ccccc3)cc2)ccc1-c1ccco1` [Example 20, N-(biphenyl-4-yl)-4-(2-furyl)-3-[(morpholin-4-ylacetyl)amino]benzamide]: the IC50 with wildtype Wnt pathway was 120 nM; in assay [1], 62.5 nM; in assay [2], ≥ 50000 nM; in assay [3], ≥ 50000 nM.

Take `CNC(=O)c1ccc(C(=O)Nc2ccc(-c3ccccc3)cc2)cc1NC(=O)CN1CCOCC1` [Example 22, N^4-(biphenyl-4-yl)-N^1-methyl-2-[(morpholin-4-ylacetyl)amino]terephthalamide]: the IC50 with wildtype Wnt pathway is 77 nM; in assay [1], 55.2 nM; in assay [2] it was ≥ 50000 nM; in assay [3], ≥ 50000 nM.

Turning to `O=C(CN1CCOCC1)Nc1cc(C(=O)Nc2ccc(-c3ccccc3)cc2)ccc1OC(F)(F)F` [Example 23, N-(biphenyl-4-yl)-3-[(morpholin-4-ylacetyl)amino]-4-(trifluoromethoxy)benzamide], the IC50 was 38 nM with wildtype Wnt pathway, 32 nM in assay [1], ≥ 50000 nM in assay [2] and ≥ 50000 nM in assay [3].

With `CC(C)Oc1ccc(C(=O)Nc2ccc(-c3ccccc3)cc2)cc1NC(=O)CN1CCOCC1` [Example 25, N-(biphenyl-4-yl)-4-isopropoxy-3-[(morpholin-4-ylacetyl)amino]benzamide], the half-maximal inhibitory concentration (IC50) was 120 nM in the assay on wildtype Wnt pathway, 43.7 nM in assay [1], ≥ 50000 nM in assay [2] and ≥ 50000 nM in assay [3].

As to `CCOc1ccc(C(=O)Nc2ccc(-c3ccccc3)cc2)cc1NC(=O)CN1CCOCC1` [Example 26, N-(biphenyl-4-yl)-4-ethoxy-3-[(morpholin-4-ylacetyl)amino]benzamide], the IC50 is 970 nM in the assay with wildtype Wnt pathway, 63.7 nM in assay [1], ≥ 50000 nM in assay [2] and ≥ 50000 nM in assay [3].

As to `COc1ccc(NC(=O)c2ccc(-c3ccccc3)cc2)cc1NC(=O)Cn1cccn1` [Example 27, N-{4-methoxy-3-[(1H-pyrazol-1-ylacetyl)amino]phenyl}biphenyl-4-carboxamide], the IC50 in the assay on wildtype Wnt pathway worked out at 700 nM; in assay [1], 1200 nM; in assay [2], 9300 nM; in assay [3] it was 23000 nM.

In the case of `O=C(Nc1ccc([N+](=O)[O-])cc1Cl)c1cc(Cl)ccc1O` [Ref., niclosamide, reference compound], the figures for the IC50 in assay [1] and in assay [3] were 1380 nM and 3100 nM, respectively.

Usually IC50 stands for the concentration needed to halve the response being measured.

(Values after patent US20160052898A1, “NOVEL COMPOUNDS” (BAYER PHARMA AKTIENGESELLSCHAFT, priority 2013, published 2016).)
